Data published in US6903183B1, “Compositions and methods for regulation of steroidogenesis” (Texas Tech University Health Services Center, priority 1996, dated 2005).

Assays:
StAR protein [1] = test: Synthesis of StAR protein in MA-10 cells after CRH, dbcAMP or hCG; format: cell-based, mouse
StAR protein [2] = test: Immunoblot analysis of 30 kDa (StAR) protein in MA-10 cells; format: cell-based, mouse
Protocol: Immunoblot Analysis. Mitochondria were isolated from either MA-10 or COS 1 cells transfected with either pCMV or pCMV+30 kDa cDNA 48 hours post-transfection. For experiments in which progesterone production was measured (as described above), cells were solubilized directly in the well with 0.1% SDS, the cell homogenates were collected and combined from all 8 wells, and the protein was precipitated using trichloracetic acid. The protein was solubilized in sample buffer (25 mM Tris/Cl, pH 6.8, 1% SDS, 5% β-mercaptoethanol, 1 mM EDTA, 4% glycerol, and 0.01% bromophenol blue) and loaded onto a 12.5% SDS-PAGE minigel (Mini-Protein II System, Bio-Rad, Richmond, Calif.). […] The membrane was washed as before, and the specific signal was detected by chemiluminescence using the Renaissance kit from Du Pont-NEN.
In order to verify that the cDNA was being expressed in eukaryotic cells, COS 1 cells were used to transfect the pCMV+30 kDa cDNA since the pCMV plasmid can be replicated in these cells and approximately 80% of the cells are transfected with plasmid DNA based on the expression of reporter protein. Forty-eight hours post-transfection, mitochondria were isolated and the 30 kDa protein expression was determined by immunoblot analysis. […] In addition, a 36.5 kDa protein was detected in the COS 1 cells which would be consistent with the precursor protein. […]

StAR mRNA = test: Northern blot analysis of StAR mRNA in MA-10 cells; format: cell-based, mouse
Protocol: MA-10 cells were stimulated with Bt2cAMP and StAR mRNA levels were determined by Northern blot analysis. Within 1 hour of Bt2cAMP stimulation, two major transcripts of approximately 3400 nt and 1600 nt, and one minor transcript of 2700 nt, were detected. […] Subsequent to the marked mRNA induction, the greatest induction (10x) in StAR protein was detected after 4 hours of Bt2cAMP stimulation by immunoblot analysis. Comparatively lower levels of StAR could be detected after 1 hour of hormone stimulation with maximal levels accumulated within 8 hours.

H295R cells = test: Agonist-stimulated aldosterone production (steroidogenesis) in H295R cells; format: cell-based, human
Protocol: (§1) FIG. 4. Effect of KN93 on agonist-stimulated aldosterone production and StAR protein expression in H295R cells. […] The medium aldosterone content was determined by R.I.A. and normalized to the tissue culture well protein content. Data points represent the mean ±SE of values from six separate culture wells expressed as fold increase over basal. Significant inhibition relative to the control response is indicated at *p<0.01. StAR protein was examined using equivalent amounts of total cellular lysate (30 μg) by immunoblot analysis as described in the Methods. Results are representative of those obtained from three separate experiments.
The human adrenocortical carcinoma-derived cell line (H295R) was used. This cell line secretes multiple steroids, including aldosterone and cortisol. […]
Subcultured cells were maintained 24 hours in DME/F12 medium containing 0.2% calf serum, 0.01% BSA and antibiotics (low serum). […] The aldosterone and cortisol contents of medium recovered from each well were determined with aldosterone and cortisol standards prepared in low-serum medium by commercial aldosterone and cortisol radioimmunoassays (Diagnostic System Laboratories; Webster, Tex.). Results of aldosterone and cortisol assays were normalized to cellular protein per well, expressed as pmol per mg cell protein and transformed to percentage of the control response where indicated. […]

StAR protein [3] = test: Immunoblot of StAR protein expression in H295R cells; format: cell-based, human
Protocol: as §1
For each treatment, cells were solubilized as described above and an equivalent amount of protein (30 μg) for each sample were separated by SDS-PAGE (12.5%) and then electrophoretically transferred to polyvinylidene difluoride membrane as previously described (Clark et al (1994) J. Biol. Chem., 269:2831-322, reference specifically incorporated herein by reference). Immunoblot analysis was as described (Id) using a rabbit sera containing the specific StAR antipeptide antibody (see ANTIBODIES infra) as the primary label and a donkey anti-rabbit IgG conjugated with horseradish peroxidase (Amersham, Arlington Heights, Ill.). The specific signal was detected by chemiluminescence assays using the Renaissance kit from DuPont NEN (Boston, Mass.) and the StAR specific bands were quantitated by BioImage Visage 2000 computer-assisted image analysis (BioImage, Ann Arbor, Mich.). Different exposure times were used to insure linearity.

[4] = target: protein complex purified from MA-10 cell mitochondrial membranes; test: competition against 35S-labeled StAR signal peptide on liposomes carrying the complex, gel filtration
Y-1 adrenal tumor cells = test: Overexpression of DAX-1 in Y-1 adrenal tumor cells; format: cell-based, mouse
[5] = tested on: mitochondria isolated from MA-10 mouse Leydig tumor cells; test: In vitro reconstituted system: pregnenolone synthesis by isolated mitochondria; format: biochemical; settings: protein added to isolated mitochondria
Description: Rat heart mitochondria were used for the import assay with bovine StAR, indicating import of StAR is not dependent upon factors specific to mitochondria isolated from steroidogenic tissues. The ability of StAR to increase steroid production has also been confirmed in an in vitro reconstituted system.

For `CCCC(=O)Nc1ncnc2c1ncn2[C@@H]1O[C@@H]2COP(=O)(O)O[C@H]2[C@H]1OC(=O)CCC` [Bt2cAMP, N^6, 2′-O-dibutyryladenosine-3′:5′-cyclic monophosphate], which “concentration of maximal response (StAR synthesis)” value (StAR protein [1]) is on record?
Its value is 1 µM.

What about the “synthesis of the StAR protein” value (StAR protein [1]) of the same molecule?
Its value is “dose-dependent increase”.

What about the “time of maximal response following stimulation” value (StAR protein [1]; CRH at 1 μM) of the same molecule?
The value was 6 h.

And the “time to maximal accumulated StAR protein levels” value (StAR protein [2])?
Its value is no more than 8 h.

And the StAR protein induction (StAR protein [2]; after 4 hours of stimulation)?
The StAR protein induction was 10 x.

And the “time to maximal StAR mRNA levels” value (StAR mRNA)?
Its value is 6 h.

And the “StAR mRNA induction” value (StAR mRNA; after 2 hours of stimulation)?
The value was 20 x.

Which aldosterone production (H295R cells; KN93 3 μM) does the source give for `COc1ccc(S(=O)(=O)N(CCO)c2ccccc2CN(C)CC=Cc2ccc(Cl)cc2)cc1` [KN93, 2-[N-(2-hydroxyethyl)-N-(4-methoxybenzenesulfonyl)]amino-N-(4-chlorocinnamyl)-N-methylbenzylamine] here?
Its aldosterone production is “potently inhibited”.

What about the block of steroidogenesis (H295R cells; KN93 between 1 and 3 μM) of the same molecule?
Its block of steroidogenesis is 60 to 80%.

And the “induction of StAR protein by Ang II, K+, or Bay K” value (StAR protein [3]; KN93 between 1 and 3 μM)?
Its value is “did not affect”.

What about the “agonist-induction of StAR protein expression” value (StAR protein [3]; co-treatment with KN93 3 μM) of the same molecule?
Its value is “not affected”.

B1: StAR signal peptide (unlabeled, commercially synthesized) (peptide)
peptide: MFLATFKLCAGSSYRHMRNMKGLRHQ
With B1 as the molecule, how does the reduction of total radioactivity in the liposome fraction [4] read?
The reduction of total radioactivity in the liposome fraction was 65%.

B2: DAX-1: transcription repressor, unusual member of the nuclear hormone receptor superfamily, overexpressed in Y-1 cells (protein, UniProt Q61066 1-472, looked up)
Nuclear receptor subfamily 0 …: MAGEDHPWQGSILYNLLMSAKQKHASQEEREVRLGAQCWGCACGAQPVLGGERLSGGQARSLLYRCCFCGENHPRQGGILYSMLTNARQPSVATQAPRARFGAPCWGCACGSAEPLVGREGLPAGQAPSLLYRCCFCGEEHPRQGSILYSLLTSAQQTHVSREAPEAHRRGEWWQLSYCTQSVGGPEGLQSTQAMAFLYRSYVCGEEQPQQISVASGTPVSADQTPATPQEQPRAPWWDASPGVQRLITLKDPQVVCEAASAGLLKTLRFVKYLPCFQILPLDQQLVLVRSCWAPLLMLELAQDHLHFEMMEIPETNTTQEMLTTRRQETEGPEPAEPQATEQPQMVSAEAGHLLPAAAVQAIKSFFFKCWSLNIDTKEYAYLKGTVLFNPDLPGLQCVKYIEGLQWRTQQILTEHIRMMQREYQIRSAELNSALFLLRFINSDVVTELFFRPIIGAVSMDDMMLEMLCAKL
How did the “StAR mRNA and protein synthesis” value (Y-1 adrenal tumor cells) turn out when B2 was run?
Its value is “inhibition”.

And the steroid synthesis (Y-1 adrenal tumor cells)?
The steroid synthesis was “complete inhibition”.

B3: adrenodoxin: another mitochondrial imported protein (protein, UniProt P10109 61-184, looked up)
Adrenodoxin, mitochondrial: SSSEDKITVHFINRDGETLTTKGKVGDSLLDVVVENNLDIDGFGACEGTLACSTCHLIFEDHIYEKLDAITDEENDMLDLAYGLTDRSRLGCQICLTKSMDNMTVRVPETVADARQSIDVGKTS
For B3, which pregnenolone synthesis [5] is on record?
The pregnenolone synthesis was “not affected”.
